Data from ChEMBL document CHEMBL3853300, “Synthesis of α-santonin derived acetyl santonous acid triazole derivatives and their bioevaluation for T and B-cell proliferation” (Eur J Med Chem, 2016).

Experiments:
Mus musculus [1] = organism: Mus musculus; assay: Cytotoxicity against Balb/c mouse T cells assessed as decrease in cell viability at 10 uM after 48 hrs by MTT assay; assay type: toxicity, cell-based
Mus musculus [2] = organism: Mus musculus; assay: Cytotoxicity against Balb/c mouse B cells assessed as decrease in cell viability at 100 uM after 48 hrs by MTT assay; assay type: toxicity, cell-based
[3] = Immunosuppressive activity in Balb/c mouse B cells assessed as inhibition of LPS-induced cell proliferation at 10 uM after 48 hrs by MTT assay relative to control; assay type: functional
Mus musculus [4] = organism: Mus musculus; assay: Cytotoxicity against Balb/c mouse B cells assessed as decrease in cell viability at 1 uM after 48 hrs by MTT assay; assay type: toxicity, cell-based
Mus musculus [5] = organism: Mus musculus; assay: Cytotoxicity against Balb/c mouse T cells assessed as decrease in cell viability at 1 uM after 48 hrs by MTT assay; assay type: toxicity, cell-based
B = assay: Immunosuppressive activity in Balb/c mouse B cells assessed as inhibition of LPS-induced cell proliferation after 48 hrs by MTT assay relative to control; assay type: functional, cell-based
[6] = Immunosuppressive activity in Balb/c mouse T cells assessed as inhibition of ConA-induced cell proliferation at 1 uM after 48 hrs by MTT assay relative to control; assay type: functional
Mus musculus [7] = organism: Mus musculus; assay: Cytotoxicity against Balb/c mouse T cells assessed as decrease in cell viability at 100 uM after 48 hrs by MTT assay; assay type: toxicity, cell-based
[8] = Immunosuppressive activity in Balb/c mouse B cells assessed as inhibition of LPS-induced cell proliferation at 1 uM after 48 hrs by MTT assay relative to control; assay type: functional
[9] = Immunosuppressive activity in Balb/c mouse T cells assessed as inhibition of ConA-induced cell proliferation at 100 uM after 48 hrs by MTT assay relative to control; assay type: functional
[10] = Immunostimulatory activity in Balb/c mouse T cells assessed as induction of ConA-induced cell proliferation at 10 uM after 48 hrs by MTT assay relative to control; assay type: cell-based
Mus musculus [11] = organism: Mus musculus; assay: Cytotoxicity against Balb/c mouse B cells assessed as decrease in cell viability at 10 uM after 48 hrs by MTT assay; assay type: toxicity, cell-based
T-cell = assay: Immunosuppressive activity in Balb/c mouse T cells assessed as inhibition of ConA-induced cell proliferation after 48 hrs by MTT assay relative to control; assay type: functional, cell-based
[12] = Immunosuppressive activity in Balb/c mouse B cells assessed as inhibition of LPS-induced cell proliferation at 100 uM after 48 hrs by MTT assay relative to control; assay type: functional
[13] = Immunostimulatory activity in Balb/c mouse B cells assessed as induction of LPS-induced cell proliferation at 1 uM after 48 hrs by MTT assay relative to control; assay type: cell-based
[14] = Immunosuppressive activity in Balb/c mouse T cells assessed as inhibition of ConA-induced cell proliferation at 10 uM after 48 hrs by MTT assay relative to control; assay type: functional
[15] = Immunostimulatory activity in Balb/c mouse T cells assessed as induction of ConA-induced cell proliferation at 1 uM after 48 hrs by MTT assay relative to control; assay type: cell-based
[16] = Immunosuppressive activity in Balb/c mouse B cells assessed as inhibition of LPS-induced cell proliferation at 50 uM after 48 hrs by MTT assay relative to control; assay type: functional
[17] = Immunostimulatory activity in Balb/c mouse B cells assessed as induction of LPS-induced cell proliferation at 10 uM after 48 hrs by MTT assay relative to control; assay type: cell-based
[18] = Immunostimulatory activity in Balb/c mouse B cells assessed as induction of LPS-induced cell proliferation at 100 uM after 48 hrs by MTT assay relative to control; assay type: cell-based

Row | Compound | Activity (Mus musculus [1]) | Activity (Mus musculus [2]) | inhibition at 10 µM [3] [%] | Activity (Mus musculus [4]) | Activity (Mus musculus [5]) | inhibition (B) | inhibition at 1 µM [6] [%] | Activity (Mus musculus [7]) | inhibition at 1 µM [8] [%] | inhibition at 100 µM [9] [%] | Activity [10] [%] | Activity (Mus musculus [11]) | inhibition (T-cell) | inhibition at 100 µM [12] [%] | Activity [13] [%] | inhibition at 10 µM [14] [%] | Activity [15] [%] | inhibition at 50 µM [16] [%] | Activity [17] [%] | Activity [18] [%]
1 | CC(=O)Oc1cc(C)c2c(c1C)C[C@H]([C@@H](C)C(=O)OCc1cn(-c3ccc4c(c3)OCO4)nn1)CC2 | Toxic | Non-Toxic | 33.9 | Non-Toxic | Non-Toxic | Dose-dependent effect | 27.8 | Non-Toxic | 40.6 | 32.4 | 16.66 | Toxic | Dose-dependent effect | 22.3 |  |  |  |  |  | 
2 | CC(=O)Oc1cc(C)c2c(c1C)C[C@H]([C@@H](C)C(=O)OCc1cn(-c3ccc(O)cc3C)nn1)CC2 | Non-Toxic | Toxic | 77.1 | Non-Toxic | Non-Toxic | Dose-dependent effect | 22.7 | Toxic | 68.8 | 54.7 | 1.33 | Non-Toxic | Dose-dependent effect | 79.7 |  |  |  |  |  | 
3 | CC(=O)Oc1cc(C)c2c(c1C)C[C@H]([C@@H](C)C(=O)OCc1cn(-c3ccc(Cl)nc3)nn1)CC2 | Toxic | Non-Toxic | 24 | Non-Toxic | Non-Toxic | Dose-dependent effect | 17.6 | Non-Toxic |  | 1.85 |  | Toxic | Dose-dependent effect | 33.7 | 9.71 | 17.6 |  |  |  | 
4 | CC(=O)Oc1cc(C)c2c(c1C)C[C@H]([C@@H](C)C(=O)OCc1cn(-c3ccccc3C#N)nn1)CC2 | Toxic | Toxic | 26.3 | Toxic | Toxic | Dose-dependent effect |  | Toxic | 40 | 6.48 |  | Toxic | Dose-dependent effect | 25.1 |  | 4.62 | 12.96 |  |  | 
5 | CC(=O)Oc1cc(C)c2c(c1C)C[C@H]([C@@H](C)C(=O)OCc1cn(Cc3ccc(Br)cc3)nn1)CC2 | Toxic | Toxic | 34.1 | Non-Toxic | Non-Toxic | Dose-dependent effect |  | Toxic |  | 37.4 |  | Toxic | Dose-dependent effect | 38.7 | 19.71 | 33.9 | 14.15 |  |  | 
6 | CC(=O)Oc1cc(C)c2c(c1C)C[C@H]([C@@H](C)C(=O)O)CC2 | Toxic | Non-Toxic | 57.2 | Toxic | Toxic | Dose-dependent effect | 31.8 | Non-Toxic | 58.8 | 75 |  | Toxic | Dose-dependent effect | 71.8 |  | 52.3 |  | 75 |  | 
7 | CC(=O)Oc1cc(C)c2c(c1C)C[C@H]([C@@H](C)C(=O)OCc1cn(-c3cccc(C#N)c3)nn1)CC2 | Non-Toxic | Toxic |  | Toxic | Toxic |  | 20.4 | Toxic |  | 45.4 |  | Non-Toxic |  |  | 8 | 25.9 |  |  | 42.28 | 37.71
8 | COc1ccc(-n2cc(COC(=O)[C@H](C)[C@@H]3CCc4c(C)cc(OC(C)=O)c(C)c4C3)nn2)cc1 | Non-Toxic | Toxic | 36.8 | Toxic | Toxic | Dose-dependent effect | 33.8 | Toxic | 42.3 | 30.1 |  | Non-Toxic | Dose-dependent effect | 15.4 |  | 36 |  |  |  | 
9 | CC1=C2[C@H]3OC(=O)[C@@H](C)[C@@H]3CC[C@@]2(C)C=CC1=O [SANTONIN] | Non-Toxic | Non-Toxic | 26.8 | Non-Toxic | Non-Toxic | Dose-dependent effect | 39.4 | Non-Toxic | 21.1 | 6.09 | 3.66 | Non-Toxic | Dose-dependent effect | 37.6 |  |  |  |  |  | 
10 | CC(=O)Oc1cc(C)c2c(c1C)C[C@H]([C@@H](C)C(=O)OCc1cn(-c3ccc(Cl)c(Cl)c3)nn1)CC2 | Toxic | Toxic | 50.5 | Non-Toxic | Non-Toxic | Dose-dependent effect | 31.6 | Toxic | 39 | 11.8 |  | Toxic | Dose-dependent effect | 49.5 |  | 18.4 |  |  |  | 
11 | CC(=O)Oc1cc(C)c2c(c1C)[C@@H]1OC(=O)[C@@H](C)[C@@H]1CC2 | Toxic | Non-Toxic | 44.3 | Toxic | Toxic | Dose-dependent effect | 47.7 | Non-Toxic | 61.8 | 75 |  | Toxic | Dose-dependent effect | 70 |  | 49.2 |  |  |  | 
